This note sets out measurements from patent publication US20130039951A1, “Process Of Preparing A Stabilized And Solubilized Formulation Of Sirolimus Derivatives” (DONG-A PHARM. CO., LTD., priority 2011, published 2013).

A short description of series [1]: Elution test of tablets in distilled water, paddle method, HPLC. It is filed as physicochemical. Conditions: 900 mL distilled water, 37.5° C., 10 mg everolimus, after 1 hour. The method, then: The granules of the examples were mixed with pharmaceutical excipients as set forth in Table 1 and then tableted to give a tablet. A direct compressing method was used to prepare a tablet comprising 10 mg of a sirolimus derivative with a hardness of 13 to 15 Kp. However, the formulation prepared from Comparative Example 1 had difficulties in being mixed with the pharmaceutical excipients of Table 1 and also met with an obstacle in a tableting process so that it was subjected to an additional milling process and controlled to have a granularity of 200 to 300 μm before being mixed with the excipients and tableted.
The tablets as obtained were evaluated for their elution property. 900 mL of an elution liquid (distilled water) was put into an elution tester and the granules as obtained in Examples 1 to 6 were taken in an amount corresponding to a dosage of 10 mg of everolimus and subjected to an elution test at 37.5° C. with 50 cycles per a minute by using a paddle method for 2 hours. For each […] taken in accordance with a predetermined schedule, the concentration of everolimus in the elution liquid was quantified by using a high performance liquid chromatography. […]

Series [2] in a line: Stability: storage in glass vial at 80° C. for 60 hours, drug content by HPLC. The series is classed as physicochemical. Here is the method:
For Examples 1 to 6 and Comparative Examples 2 and 3, their stability was evaluated and the results were compared. Each of the samples was placed in a glass vial and stored at 80° C. for 60 hours, and then the content of the drug was quantified by using a high performance liquid chromatography.

`CO[C@H]1C[C@@H]2CC[C@@H](C)[C@@](O)(O2)C(=O)C(=O)N2CCCC[C@H]2C(=O)O[C@H]([C@H](C)C[C@@H]2CC[C@@H](OCCO)[C@H](OC)C2)CC(=O)[C@H](C)/C=C(\C)[C@@H](O)[C@@H](OC)C(=O)[C@H](C)C[C@H](C)/C=C/C=C/C=C/1C` [Comparative Example 2, 40-O hydroxyethyl rapamycin]: in series [1], the “elution rate of everolimus” value is on record as “about 37%”. Moreover, the “content after being left for 60 hours” value in series [2] (80° C., 60 hours) turned out to be 23.5%. The “Content, initial” value in series [2] (before storage) stood at 100.4 wt %. The “Content, After 60 hours” value in series [2] (stored at 80° C. for 60 hours in glass vial) is given as 23.5 wt %.
